Columns and labels:
[1] = air of a workplace; classified by regulatory authorities at EU and national levels; cited from earlier work
[2] = Risdiplam solubility in tartaric acid solution with sodium croscarmellose or crospovidone (UPLC); assay type: physicochemical; settings: 0.6 mg/ml tartaric acid in tap water, pH 4.1, stirred 30 minutes, room temperature
Method: 60 mg of Tartaric Acid were dissolved in 100 ml tap water (0.6 mg/ml) at room temperature and protected from light. A representative amount of Sodium Croscarmellose or Crospovidone was added and dispersed. After that, 100 mg of risdiplam were added, the suspension stirred for 30 minutes und the concentration analyzed by UPLC (see Table 11).

[3] = Impact of sucralose on risdiplam stability; assay type: physicochemical; settings: 25 mg risdiplam and 475 mg Sucralose, 15 days at 70° C./75% Relative Humidity
Method: FIG. 3: Discoloration and decomposition of risdiplam in the presence of Sucralose, a) Risdiplam+Sucralose at time 0, b) risdiplam+Sucralose (70° C./75% Relative Humidity) after 15 days, c) sucralose without Risdiplam (70° C./75% Relative Humidity) after 15 days.
The impact of Sucralose on Risdiplam stability was evaluated. Vial (a) contained […] and is shown at time 0; vial (b) is 25 mg risdiplam and 475 mg Sucralose after 15 days at 70° C./75% Relative Humidity; and vial (c) is Sucralose without Risdiplam after 15 days at 70° C./75% Relative Humidity.

Cc1cn2nc(-c3cc(=O)n4cc(N5CCNC6(CC6)C5)ccc4n3)cc(C)c2n1 [Risdiplam, 7-(4,7-diazaspiro[2.5]octan-7-yl)-2-(2,8-dimethylimidazo[1,2-b]pyridazin-6-yl)pyrido[1,2-a]pyrimidin-4-one]
IOEL (occupational exposure limit) [1]: 1.0-10 microgram/m3 | Concentration (Nominal 1 mg/ml) ([2]; with Crospovidone (75 mg)): 970 µg/mL | Concentration (Nominal 1 mg/ml) ([2]; with Sodium Croscarmellose (75 mg)): 280 µg/mL | Stability of risdiplam in presence of Sucralose [3]: cause discoloration and promote the decomposition of risdiplam

— patent publication US20250144031A1, “COMPOSITION FOR TREATING SPINAL MUSCULAR ATROPHY” (Hoffmann-La Roche Inc., priority 2023, published 2025)
